Source: patent US20260144788A1, “COMPOUND FOR SHP2 PROTEIN DEGRADATION AND MEDICAL USES THEREOF” (UBIX THERAPEUTICS, INC., priority 2022, published 2026)

Target: T1, SHP2 protein (Homo sapiens, UniProt Q06124)
T1 sequence (Q06124 1-593): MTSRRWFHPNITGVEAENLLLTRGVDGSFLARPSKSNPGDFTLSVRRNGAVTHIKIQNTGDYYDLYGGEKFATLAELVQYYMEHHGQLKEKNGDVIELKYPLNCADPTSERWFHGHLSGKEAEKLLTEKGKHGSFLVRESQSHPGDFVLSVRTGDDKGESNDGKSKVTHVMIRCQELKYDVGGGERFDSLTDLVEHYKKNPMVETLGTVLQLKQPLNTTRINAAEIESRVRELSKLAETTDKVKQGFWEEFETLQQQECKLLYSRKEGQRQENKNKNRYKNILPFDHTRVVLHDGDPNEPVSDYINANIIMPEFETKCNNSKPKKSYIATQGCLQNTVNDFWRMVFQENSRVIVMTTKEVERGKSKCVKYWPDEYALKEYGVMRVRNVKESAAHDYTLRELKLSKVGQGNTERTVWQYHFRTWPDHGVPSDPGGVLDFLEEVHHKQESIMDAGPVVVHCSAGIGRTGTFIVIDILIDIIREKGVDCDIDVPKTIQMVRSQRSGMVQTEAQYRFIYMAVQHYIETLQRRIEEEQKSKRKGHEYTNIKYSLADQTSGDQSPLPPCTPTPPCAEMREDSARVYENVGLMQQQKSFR
Experiment: Measurement of SHP2 protein degradation in MV-4-11 cells (western blotting)
Assay type: cell-based
Set-up: endogenous in cells
Conditions: harvested after 24 hours
How it was run: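 MV-4-11 cells in IMDM/5% FBS were exposed to compound at final 0.01, 0.1, 1 μM or 0.001, 0.01, 0.1 μM for 24 h, DMSO as negative control. BCA-normalised lysates were immunoblotted for SHP2 with GAPDH as loading control, read on LI-COR Odyssey.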

SHP2% degradation (0.01 μM) [%]	SHP2% degradation (0.1 μM) [%]	Structure (SMILES)
84.5	99.9	Cc1ncsc1-c1ccc(CNC(=O)[C@@H]2C[C@@H](O)CN2C(=O)[C@@H](NC(=O)C2(F)CC2)C(C)(C)C)c(OC2CCN(C(=O)C3(O)CCN(c4nccc(Sc5cnc(N6CCC(C)(CN)CC6)cn5)c4Cl)CC3)CC2)c1 [Example 70, (2S,4R)—N-(2-((1-(1-(4-((5-(4-(aminomethyl)-4-methylpiperidin-1-yl)pyrazin-2-yl)thio)-3-chloropyridin-2-yl)-4-hydroxypiperidine-4-carbonyl)piperidin-4-yl)oxy)-4-(4-methylthiazol-5-yl)benzyl)-1-((S)-2-(1-fluorocyclopropane-1-carboxamido)-3,3-dimethylbutanoyl)-4-hydroxypyrrolidine-2-carboxamide]
70.4	99.4	Cc1ncsc1-c1ccc(CNC(=O)[C@@H]2C[C@@H](O)CN2C(=O)[C@@H](NC(=O)C2(F)CC2)C(C)(C)C)c(OCCN2CCN(C(=O)C3CN(c4nccc(Sc5cnc(N6CCC(C)(CN)CC6)cn5)c4Cl)C3)CC2)c1 [Example 53, (2S,4R)—N-(2-(2-(4-(1-(4-((5-(4-(aminomethyl)-4-methylpiperidin-1-yl)pyrazin-2-yl)thio)-3-chloropyridin-2-yl)azetidine-3-carbonyl)piperazin-1-yl)ethoxy)-4-(4-methylthiazol-5-yl)benzyl)-1-((S)-2-(1-fluorocyclopropane-1-carboxamido)-3,3-dimethylbutanoyl)-4-hydroxypyrrolidine-2-carboxamide]
95.8	99.9	CC(=O)N[C@H](C(=O)N1C[C@H](O)C[C@H]1C(=O)NCc1ccc(-c2scnc2C)cc1O[C@H]1CC[C@H](C(=O)N2CC(Nc3cccc(Sc4cnc(N5CCC(C)(CN)CC5)cn4)c3Cl)C2)CC1)C(C)(C)C [Example 27, (2S,4R)-1-((S)-2-acetamido-3,3-dimethylbutanoyl)-N-(2-(((1R,4S)-4-(3-((3-((5-(4-(aminomethyl)-4-methylpiperidin-1-yl)pyrazin-2-yl)thio)-2-chlorophenyl)amino)azetidine-1-carbonyl)cyclohexyl)oxy)-4-(4-methylthiazol-5-yl)benzyl)-4-hydroxypyrrolidine-2-carboxamide]
14.8	56.9	Cc1ncsc1-c1ccc(CNC(=O)[C@@H]2C[C@@H](O)CN2C(=O)[C@@H](NC(=O)C2(F)CC2)C(C)(C)C)c(O[C@H]2CC[C@H](CN3CCC(Nc4cccc(Sc5cnc(N6CCC(C)(CN)CC6)cn5)c4Cl)CC3)CC2)c1 [Example 6, (2S,4R)—N-(2-(((1R,4S)-4-((4-((3-((5-(4-(aminomethyl)-4-methylpiperidin-1-yl)pyrazin-2-yl)thio)-2-chlorophenyl)amino)piperidin-1-yl)methyl)cyclohexyl)oxy)-4-(4-methylthiazol-5-yl)benzyl)-1-((S)-2-(1-fluorocyclopropane-1-carboxamido)-3,3-dimethylbutanoyl)-4-hydroxypyrrolidine-2-carboxamide]
